{"source": "paper PMC4725312", "about": "(Journal of biomolecular screening, 2010)", "molecular_target": "TRPM7 (Mus musculus, UniProt Q923J1)", "sequence (Q923J1 whole entry)": "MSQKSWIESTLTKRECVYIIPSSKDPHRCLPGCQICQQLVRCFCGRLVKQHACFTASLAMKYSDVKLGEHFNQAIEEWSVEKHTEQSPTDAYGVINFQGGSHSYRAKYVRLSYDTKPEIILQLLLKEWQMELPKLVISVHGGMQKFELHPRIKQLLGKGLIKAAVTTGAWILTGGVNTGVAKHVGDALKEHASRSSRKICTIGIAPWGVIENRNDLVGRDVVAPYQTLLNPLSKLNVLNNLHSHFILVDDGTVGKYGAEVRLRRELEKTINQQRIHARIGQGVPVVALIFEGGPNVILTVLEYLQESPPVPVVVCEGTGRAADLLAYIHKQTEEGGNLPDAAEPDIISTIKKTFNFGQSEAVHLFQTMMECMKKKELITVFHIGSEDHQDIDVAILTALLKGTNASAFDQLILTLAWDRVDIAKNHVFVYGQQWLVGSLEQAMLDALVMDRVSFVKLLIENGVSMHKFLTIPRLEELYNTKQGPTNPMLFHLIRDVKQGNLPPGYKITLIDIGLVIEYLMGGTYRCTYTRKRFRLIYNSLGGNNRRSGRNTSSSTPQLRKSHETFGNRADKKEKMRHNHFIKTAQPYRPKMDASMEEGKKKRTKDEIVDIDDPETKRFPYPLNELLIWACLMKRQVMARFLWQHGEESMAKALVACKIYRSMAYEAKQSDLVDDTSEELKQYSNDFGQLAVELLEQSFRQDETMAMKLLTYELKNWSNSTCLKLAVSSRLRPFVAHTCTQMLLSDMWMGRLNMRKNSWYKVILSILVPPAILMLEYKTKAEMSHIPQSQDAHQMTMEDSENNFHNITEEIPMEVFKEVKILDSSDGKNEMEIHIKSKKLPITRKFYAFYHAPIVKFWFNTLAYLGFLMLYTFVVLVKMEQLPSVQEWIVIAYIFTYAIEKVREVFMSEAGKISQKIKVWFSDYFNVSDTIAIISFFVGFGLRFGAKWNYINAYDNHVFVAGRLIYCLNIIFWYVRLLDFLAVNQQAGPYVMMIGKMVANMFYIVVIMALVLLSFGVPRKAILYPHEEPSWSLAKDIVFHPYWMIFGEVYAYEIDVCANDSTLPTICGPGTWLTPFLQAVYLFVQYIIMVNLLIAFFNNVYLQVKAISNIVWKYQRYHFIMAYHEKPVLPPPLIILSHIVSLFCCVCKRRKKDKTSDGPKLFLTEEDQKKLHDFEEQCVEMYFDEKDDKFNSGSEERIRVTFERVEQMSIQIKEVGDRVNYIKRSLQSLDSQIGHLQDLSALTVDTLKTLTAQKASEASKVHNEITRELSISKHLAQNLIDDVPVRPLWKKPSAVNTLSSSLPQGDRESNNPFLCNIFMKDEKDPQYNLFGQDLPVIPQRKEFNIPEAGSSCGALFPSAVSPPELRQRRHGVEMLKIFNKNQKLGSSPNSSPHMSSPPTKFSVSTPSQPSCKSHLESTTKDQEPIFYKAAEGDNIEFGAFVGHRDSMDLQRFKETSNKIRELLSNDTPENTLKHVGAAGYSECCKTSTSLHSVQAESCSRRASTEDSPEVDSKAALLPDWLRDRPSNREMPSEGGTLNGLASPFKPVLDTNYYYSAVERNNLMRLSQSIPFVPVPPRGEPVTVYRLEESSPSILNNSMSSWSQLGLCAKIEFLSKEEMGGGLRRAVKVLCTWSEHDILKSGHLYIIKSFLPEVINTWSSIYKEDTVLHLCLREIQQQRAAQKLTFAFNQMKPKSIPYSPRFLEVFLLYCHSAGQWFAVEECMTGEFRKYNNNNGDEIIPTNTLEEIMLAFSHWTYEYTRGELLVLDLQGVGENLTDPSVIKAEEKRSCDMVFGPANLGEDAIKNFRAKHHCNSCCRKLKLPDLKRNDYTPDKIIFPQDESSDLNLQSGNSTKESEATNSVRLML", "format": "cell-based"}
{"compound": "NCCOB(c1ccccc1)c1ccccc1", "note": "[2-APB]", "values": [{"measurement": "IC50", "value": 30, "unit": "µM"}]}
